Source: patent US12376590B2, “Compositions comprising pyridine carboxylate herbicides and azole carboxylate safeners” (Corteva Agriscience LLC, priority 2018, dated 2025)
Several values for one entry are separate records, joined by “and”; a condition that tells them apart may be missing. Equal entries are not always repeated.

Assays:
Test in all cases: Greenhouse postemergence herbicidal safening trial, visual injury after 20-22 d
spring wheat (TRZAS) = assay type: in vivo, Triticum aestivum; conditions: applied alone
Description: (§1) Greenhouse Trial Methodology—Evaluation of Postemergence Herbicidal Safening in Crops
(§2) Seeds of the desired test plant species were planted in a 90:10% v/v (volume/volume) mixture of PRO-MIX® BX (Premier Tech Horticulture, Quakertown, PA, USA) and PROFILE® GREENS GRADE™ (Profile Products LLC, Buffalo Grove, IL, USA) planting mixture, which typically has a pH of 5.2 to 6.2 and an organic matter content of at least 50 percent, in plastic pots with a surface area of 103.2 square centimeters (cm^2). When required to ensure good germination and healthy plants, a fungicide treatment and/or other chemical or physical treatment was applied. The plants were grown for 7-36 days (d) in a greenhouse with an approximate 14-hour (h) photo-period which was maintained at about 23° C. during the day and 22° C. during the night. Nutrients and water were added on a regular basis and supplemental lighting was provided with overhead metal halide 1000-Watt lamps as necessary. The plants were employed for testing when they reached the second or third true leaf stage.
(§3) Emulsifiable concentrates of each of each pyridine carboxylate herbicide (Compound A or Compound B) were prepared at 100 grams acid equivalent per liter (g ae/L). An aliquot of each emulsifiable concentrate was placed in a 25 mL glass vial and diluted with an aqueous mixture of 1.25% (v/v) ACTIROB® B esterified rapeseed oil (Bayer Crop Science, Research Triangle Park, NC, USA) or MSO® Concentrate with LECI-TECH® methylated soybean oil (Loveland Products, Loveland, CO, USA) to obtain concentrated stock solutions at the highest application rate for each herbicide, based upon a 12 milliliter (mL) application volume at a rate of 187 liters per hectare (L/ha). The concentrated stock solutions were further diluted with an aqueous mixture of 1.25% v/v ACTIROB® B or MSO® Concentrate with LECI-TECH® to obtain stock solutions at reduced application rates for each herbicide. Spray solutions of the herbicide combinations (Compound A or Compound B plus safener) were prepared by adding weighed amounts or aliquots of the azole carboxylate safener to the stock solutions of Compound A or Compound B to form 12-mL spray solutions in two-way combinations.
(§4) The spray solutions were applied to the plant material with an overhead Mandel track sprayer equipped with 8002E nozzles calibrated to deliver 187 L/ha over an application area of 0.503 square meters (m^2) at a spray height of 18 inches (43 centimeters (cm)) above the average plant canopy. Control plants were sprayed in the same manner with the solvent blank. All herbicide (component a) application rates are given as “g ae/ha” and all safener (component b) application rates are given as “g ai/ha.”
(§5) The treated plants and control plants were placed in a greenhouse as described above and watered by sub-irrigation to prevent wash-off of the test compounds. After 20-22 d, the condition of the test plants as compared with that of the control plants was determined visually and scored on a scale of 0 to 100 percent where 0 corresponds to no injury and 100 corresponds to complete kill.

winter wheat (TRZAW) = assay type: in vivo, Triticum aestivum
Description: as §1, §2, §3, §4, §5

spring barley (HORVS) = assay type: in vivo, Hordeum vulgare; conditions: applied alone
Description: as §1, §2, §3, §4, §5

maize (ZEAMX) = assay type: in vivo, Zea mays
Description: as §1, §2, §3, §4, §5

common rice (ORYSA) = assay type: in vivo, Oryza sativa
Description: as §1, §2, §3, §4, §5

winter rape (BRSNW) = assay type: in vivo, Brassica napus
Description: as §1, §2, §3, §4, §5

wild chamomile (MATCH) = assay type: in vivo, Matricaria chamomilla; conditions: applied alone, 20 g/ha
Description: as §1, §2, §3, §4, §5

Russian thistle (SASKR) = assay type: in vivo, Salsola kali; conditions: applied alone, 20 g/ha
Description: as §1, §2, §3, §4, §5

pigweed (AMARE) = assay type: in vivo, Amaranthus retroflexus
Description: as §1, §2, §3, §4, §5

nutsedge (CYPES) = assay type: in vivo, Cyperus esculentus
Description: as §1, §2, §3, §4, §5

common sunflower (HELAN) = assay type: in vivo, Helianthus annuus
Description: as §1, §2, §3, §4, §5

velvetleaf (ABUTH) = assay type: in vivo, Abutilon theophrasti
Description: as §1, §2, §3, §4, §5

blackgrass (ALOMY) = assay type: in vivo, Alopecurus myosuroides
Description: as §1, §2, §3, §4, §5

wild oat (AVEFA) = assay type: in vivo, Avena fatua
Description: as §1, §2, §3, §4, §5

[1] = system: common lambsquarters (CHEAL); assay type: in vivo, Chenopodium album L.
Description: as §1, §2, §3, §4, §5

Canada thistle (CIRAR) = assay type: in vivo, Cirsium arvense
Description: as §1, §2, §3, §4, §5

large crabgrass (DIGSA) = assay type: in vivo, Digitaria sanguinalis
Description: as §1, §2, §3, §4, §5

barnyardgrass (ECHCG) = assay type: in vivo, Echinochloa crus-galli
Description: as §1, §2, §3, §4, §5

Canada horseweed (ERICA) = assay type: in vivo, Erigeron canadensis
Description: as §1, §2, §3, §4, §5

soybean (GLXMA) = assay type: in vivo, Glycine max
Description: as §1, §2, §3, §4, §5

[2] = system: ivyleaf morningglory (IPOHE); assay type: in vivo, Ipomoea hederacea
Description: as §1, §2, §3, §4, §5

[3] = system: herbicide-resistant kochia (KCHSC-R); assay type: in vivo, Kochia scoparia
Description: as §1, §2, §3, §4, §5

kochia (KCHSC) = assay type: in vivo, Kochia scoparia
Description: as §1, §2, §3, §4, §5

[4] = system: Chinese sprangletop (LEFCH); assay type: in vivo, Leptochloa chinensis
Description: as §1, §2, §3, §4, §5

Italian ryegrass (LOLMU) = assay type: in vivo, Lolium multiflorum
Description: as §1, §2, §3, §4, §5

wild buckwheat (POLCO) = assay type: in vivo, Polygonum convolvulus
Description: as §1, §2, §3, §4, §5

giant foxtail (SETFA) = assay type: in vivo, Setaria faberi
Description: as §1, §2, §3, §4, §5

Johnson grass (SORHA) = assay type: in vivo, Sorghum halepense
Description: as §1, §2, §3, §4, §5

wild pansy (VIOTR) = assay type: in vivo, Viola tricolor
Description: as §1, §2, §3, §4, §5

For `N#CCOC(=O)c1nc(-c2ccc3cc[nH]c3c2F)c(F)c(N)c1Cl` [Compound A, cyanomethyl 4-amino-3-chloro-5-fluoro-6-(7-fluoro-1H-indol-6-yl)pyridine-2-carboxylate], the “% visual injury Ob” value (spring wheat (TRZAS); 20 g/ha) was 25%, the “% visual injury Ob” value (spring wheat (TRZAS); 40 g/ha) was 23% and 30% and the “% visual injury Ob” value (winter wheat (TRZAW); Compound A 20 g/ha) was 25%. For the same molecule, the “% visual injury Ob” value (winter wheat (TRZAW); applied alone, 20 g/ha) was 25%, the “% visual injury Ob” value (winter wheat (TRZAW); applied alone, 40 g/ha) was 25% and the “% visual injury Ob” value (spring barley (HORVS); 20 g/ha) was 0%. The “% visual injury Ob” value (spring barley (HORVS); 40 g/ha) was 17%, the “% visual injury Ob” value (maize (ZEAMX); Compound A 20 g/ha) was 13% and the “% visual injury Ob” value (maize (ZEAMX); applied alone, 20 g/ha) was 13%. The “% visual injury Ob” value (maize (ZEAMX); applied alone, 40 g/ha) was 55%, the “% visual injury Ob” value (common rice (ORYSA); Compound A 20 g/ha) was 10% and the “% visual injury Ob” value (common rice (ORYSA); applied alone, 20 g/ha) was 10%. The “% visual injury Ob” value (winter rape (BRSNW); Compound A 20 g/ha) was 85%, the “% visual injury Ob” value (winter rape (BRSNW); applied alone, 20 g/ha) was 95% and 85% and the “% visual injury Ob” value (wild chamomile (MATCH)) was 50%. For the same molecule, the “% visual injury Ob” value (Russian thistle (SASKR)) was 60%, the “% visual injury Ob” value (pigweed (AMARE); Compound A 20 g/ha) was 93% and the “% visual injury Ob” value (pigweed (AMARE); applied alone, 20 g/ha) was 93%. The “% visual injury Ob” value (pigweed (AMARE); applied alone, 40 g/ha) was 100%, the “% visual injury Ob” value (nutsedge (CYPES); Compound A 20 g/ha) was 30% and the “% visual injury Ob” value (nutsedge (CYPES); applied alone, 20 g/ha) was 30%. The “% visual injury Ob” value (nutsedge (CYPES); applied alone, 40 g/ha) was 73%, the “% visual injury Ob” value (common sunflower (HELAN); Compound A 20 g/ha) was 95% and the “% visual injury Ob” value (common sunflower (HELAN); applied alone, 20 g/ha) was 95%. The “% visual injury Ob” value (common sunflower (HELAN); applied alone, 40 g/ha) was 100%, the “% visual injury Ob” value (velvetleaf (ABUTH); Compound A 20 g/ha) was 95% and the “% visual injury Ob” value (velvetleaf (ABUTH); applied alone, 20 g/ha) was 95%. The “% visual injury Ob” value (blackgrass (ALOMY); Compound A 20 g/ha) was 0%, the “% visual injury Ob” value (blackgrass (ALOMY); applied alone, 20 g/ha) was 0% and the “% visual injury Ob” value (wild oat (AVEFA); Compound A 20 g/ha) was 0%. For the same molecule, the “% visual injury Ob” value (wild oat (AVEFA); applied alone, 20 g/ha) was 0%, the “% visual injury Ob” value ([1]; Compound A 20 g/ha) was 88% and the “% visual injury Ob” value ([1]; applied alone, 20 g/ha) was 88%. For the same molecule, the “% visual injury Ob” value (Canada thistle (CIRAR); Compound A 20 g/ha) was 95%, the “% visual injury Ob” value (Canada thistle (CIRAR); applied alone, 20 g/ha) was 95% and the “% visual injury Ob” value (large crabgrass (DIGSA); Compound A 20 g/ha) was 30%. For the same molecule, the “% visual injury Ob” value (large crabgrass (DIGSA); applied alone, 20 g/ha) was 30%, the “% visual injury Ob” value (barnyardgrass (ECHCG); Compound A 20 g/ha) was 85% and the “% visual injury Ob” value (barnyardgrass (ECHCG); applied alone, 20 g/ha) was 85%. The “% visual injury Ob” value (Canada horseweed (ERICA); Compound A 20 g/ha) was 95%, the “% visual injury Ob” value (Canada horseweed (ERICA); applied alone, 20 g/ha) was 95% and the “% visual injury Ob” value (soybean (GLXMA); Compound A 20 g/ha) was 100%. For the same molecule, the “% visual injury Ob” value (soybean (GLXMA); applied alone, 20 g/ha) was 100%, the “% visual injury Ob” value ([2]; Compound A 20 g/ha) was 0% and the “% visual injury Ob” value ([2]; applied alone, 20 g/ha) was 0%. The “% visual injury Ob” value ([3]; Compound A 20 g/ha) was 90%, the “% visual injury Ob” value ([3]; applied alone, 20 g/ha) was 90% and the “% visual injury Ob” value (kochia (KCHSC); Compound A 20 g/ha) was 97%. The “% visual injury Ob” value (kochia (KCHSC); applied alone, 20 g/ha) was 97%, the “% visual injury Ob” value ([4]; Compound A 20 g/ha) was 60% and the “% visual injury Ob” value ([4]; applied alone, 20 g/ha) was 60%. The “% visual injury Ob” value (Italian ryegrass (LOLMU); Compound A 20 g/ha) was 5%, the “% visual injury Ob” value (Italian ryegrass (LOLMU); applied alone, 20 g/ha) was 5% and the “% visual injury Ob” value (wild buckwheat (POLCO); Compound A 20 g/ha) was 100%. The “% visual injury Ob” value (wild buckwheat (POLCO); applied alone, 20 g/ha) was 100%, the “% visual injury Ob” value (giant foxtail (SETFA); Compound A 20 g/ha) was 65% and the “% visual injury Ob” value (giant foxtail (SETFA); applied alone, 20 g/ha) was 65%. For the same molecule, the “% visual injury Ob” value (Johnson grass (SORHA); Compound A 20 g/ha) was 0%, the “% visual injury Ob” value (Johnson grass (SORHA); applied alone, 20 g/ha) was 0% and the “% visual injury Ob” value (wild pansy (VIOTR); Compound A 20 g/ha) was 30%. For the same molecule, the “% visual injury Ob” value (wild pansy (VIOTR); applied alone, 20 g/ha) was 30%.
